Reference: patent US20100160369A1, “S1P1 Agonists and Methods of Making And Using” (EXELIXIS, INC., priority 2008, published 2010)

What was measured:
hS1P1R (hEdg1) = molecular target: T1, hS1P1R (hEdg1) (Homo sapiens, UniProt P21453); test: hS1P1R GTPγS Binding Assay (Assay 3a); assay type: biochemical
T1 construct: purchased Lonza
Description: The hS1P1R GTPγS binding assay was carried out at room temperature in 96 well non-binding surface assay plates. The reaction in each well contained 4 μg hS1P1R (hEdg1) membrane protein (Lonza), 30 μM GDP, 0.1 nM [^35S]GTPγS, 0.25% fatty acid free BSA, and serially diluted hS1P1R agonist compound in 200 μL assay buffer (25 mM Tris-HCl PH 7.9, 100 mM NaCl, 3 mM MgCl2, and 0.2 mM EGTA). After one hour of incubation, 0.9 mg of WGA (Wheat Germ Agglutinin) SPA beads in 50 μL of assay buffer was added to each well. The SPA beads were spun down after an additional one hour incubation. The radioactivity of the bound GTPγS was counted by reading the assay plate using a MicroBeta.
(§1) Assay 1 is the CNG cAMP Assay as described in Biological Example 1. Assay 2a and 2b are the Tango™ β-arrestin Recruitment Assay in HEK293 and U2OS cells, respectively, as described in Biological Example 2. Assay 3a is the hS1P1R GTPγS Binding Assay as described in Biological Example 3. Assay 3b is the GTP-Eu Binding Assay as described in Biological Example 3. EC50's were measured unless otherwise noted. […] In the table, “nt” means the Compound was not tested and “no” means the compound was tested but had no measurable activity under the assay conditions employed.

S1P1 [1] = molecular target: T2, S1P1 (Homo sapiens, UniProt P21453); test: DELFIA GTP-Eu Binding Assay (Assay 3b); assay type: biochemical; design: purchased Lonza; host or cells: CHO cell membranes
Description: The DELFIA GTP-Eu binding assay (PerkinElmer) is a time-resolved fluorometric assay based on GDP-GTP exchange. CHO cell membranes (Lonza) expressing human S1P1 were incubated in 96-well filter plates (Pall, East Hills, N.Y.) in a final volume of 100 μL/well buffer containing 40 μg/mL membrane, 50 mM HEPES, 2 μM GDP, 10 mM MgCl2, 100 mM NaCl, 500 μg/mL Saponin and test compound. Test compounds were tested at maximum concentrations of 10 μM. Compounds were diluted (10 concentration points, 3-fold each) and added to the assay plate at a 1% final DMSO concentration. For each compound, there were duplicate assay plates and each assay plate had duplicate wells per concentration point. The plates were incubated for 30 min at room temperature on a plate shaker at low speed. GTP-Eu was added to each well (10 μL, 10 nM final concentration) and the plate was incubated for an additional 30 min with slow shaking The wells were washed with ice cold GTP washing buffer (3×150 μL) using a vacuum manifold and the assay plates read in an EnVision plate reader (PerkinElmer) at an excitation wavelength of 340 nm and an emission wavelength of 615 nm. To determine agonist activity, percent activity was calculated as [(test compound−background)/(positive control−background)*100], where background is the fluorescence in absence of compound and the positive control is the fluorescence from membranes incubated with 1 μM S1P (Avanti). The percent activities were plotted against compound concentration to determine IC50 or EC50 using XLFit (IDBS).
as §1
Target sequence in this assay (P21453 whole entry): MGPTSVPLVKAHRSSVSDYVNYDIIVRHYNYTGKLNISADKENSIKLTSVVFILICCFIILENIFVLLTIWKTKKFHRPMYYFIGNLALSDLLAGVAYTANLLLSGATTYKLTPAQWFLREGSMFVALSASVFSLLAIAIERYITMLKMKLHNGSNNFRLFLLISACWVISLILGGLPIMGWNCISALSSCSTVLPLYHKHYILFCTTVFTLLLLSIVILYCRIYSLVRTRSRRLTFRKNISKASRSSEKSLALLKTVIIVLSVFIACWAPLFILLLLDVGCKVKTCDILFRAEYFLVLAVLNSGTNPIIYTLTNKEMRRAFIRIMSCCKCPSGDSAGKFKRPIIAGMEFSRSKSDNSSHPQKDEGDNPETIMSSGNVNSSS

S1P1 [2] = molecular target: T2, S1P1; test: CNG cAMP Assay (Assay 1); assay type: cell-based; design: host or cells: HEK293 cells expressing the CNG channel; conditions: read-out: Assay 1 EC50
Summary of the method: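 cAMP-gated CNG membrane-potential read-out (350/590 nm, T90/T0 ratio) in S1P1/CNG HEK293 cells after 90 min with compound plus NECA 500 nM, S1P 10 nM (EC95), Ro 20-1724 25 μM. Ten 3-fold points from 10 μM, 1.8% DMSO; percent activity vs NECA-only control gives EC50.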
Target sequence in this assay (P21453 whole entry): as above

S1P1 [3] = molecular target: T2, S1P1; test: Tango β-arrestin Recruitment Assay in HEK293 cells (Assay 2a); assay type: cell-based; design: linker with TEV protease (N1a) cleavage site (C); host or cells: HEK293, transiently transfected; conditions: Tango β-arrestin Recruitment Assay, read-out: Assay 2a EC50
Summary of the method: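 Agonist-driven β-arrestin2–TEV recruitment releases tTA to drive luciferase in transiently transfected HEK293 cells. Ten 3-fold dilutions from 10 μM top (1% DMSO), 16–18 h at 37 °C; EC50 fitted to percent activity versus DMSO background and 5 μM S1P efficacy control.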
Target sequence in this assay (P21453 whole entry): as above
Target sequence in this assay (P32121 whole entry partner): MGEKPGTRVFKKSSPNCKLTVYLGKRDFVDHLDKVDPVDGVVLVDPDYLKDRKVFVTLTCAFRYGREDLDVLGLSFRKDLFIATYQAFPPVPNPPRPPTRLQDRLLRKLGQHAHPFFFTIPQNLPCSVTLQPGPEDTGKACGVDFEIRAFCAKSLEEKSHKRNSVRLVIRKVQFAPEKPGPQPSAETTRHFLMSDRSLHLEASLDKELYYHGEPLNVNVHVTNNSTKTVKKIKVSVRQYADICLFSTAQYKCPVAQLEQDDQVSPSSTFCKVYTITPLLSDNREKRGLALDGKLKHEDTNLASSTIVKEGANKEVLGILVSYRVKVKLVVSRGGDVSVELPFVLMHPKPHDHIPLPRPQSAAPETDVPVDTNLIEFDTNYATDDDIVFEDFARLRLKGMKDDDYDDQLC

S1P1 [4] = molecular target: T2, S1P1; test: Tango β-arrestin Recruitment Assay in U2OS cells (Assay 2b); assay type: cell-based; design: linker with TEV protease (N1a) cleavage site (C); conditions: Tango β-arrestin Recruitment Assay, read-out: Assay 2b EC50
Summary of the method: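 Agonist EC50 from percent activity relative to 1 μM S1P efficacy control, using background-subtracted 460/530 nm emission ratios. Compounds (max 1 μM, ten 3-fold dilutions) incubated overnight at 37 °C with serum-starved S1P1 U2OS reporter cells, followed by 2 h β-lactamase reagent at room temperature.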
Target sequence in this assay (P21453 whole entry): as the sequence (P21453 whole entry) above
Target sequence in this assay (P32121 whole entry partner): as the sequence (P32121 whole entry partner) above

[5] = relative EC50 was measured (footnote 1), read-out: Assay 3b Relative EC50

T1 sequence (P21453 whole entry): as the sequence (P21453 whole entry) above

Work on Cc1c(I)ccc2nc(-c3nc(-c4cc(F)c(CCC(=O)O)cc4Cl)no3)cn12 [Example 300, 3-{5-chloro-2-fluoro-4-[5-(6-iodo-5-methylimidazo[1,2-a]pyridin-2-yl)-1,2,4-oxadiazol-3-yl]phenyl}propanoic acid] yielded an EC50 (hS1P1R (hEdg1)) of 1000 to 5000 nM, an EC50 (S1P1 [1]; read-out: Assay 3b EC50) of 100 to 500 nM and an EC50 (S1P1 [2]) of at most 100 nM. For the same compound, the EC50 (S1P1 [3]) was at most 100 nM.

With Cc1cc(-c2noc(-c3cn4cc(C(F)(F)F)cc(Cl)c4n3)n2)cc(C)c1OCC(O)CO (centres unmarked) [Example 161, 3-[(4-{5-[8-chloro-6-(trifluoromethyl)imidazo[1,2-a]pyridin-2-yl]-1,2,4-oxadiazol-3-yl}-2,6-dimethylphenyl)oxy]propane-1,2-diol] the EC50 (hS1P1R (hEdg1)) was at most 100 nM, the EC50 (S1P1 [1]; read-out: Assay 3b EC50) was 100 to 500 nM and the EC50 (S1P1 [2]) was at most 100 nM. For the same compound, the EC50 (S1P1 [3]) was at most 100 nM.

For C[C@@H](CO)Oc1cc(Cl)c(-c2noc(-c3cn4cc(C(F)(F)F)cc(Cl)c4n3)n2)cc1F [Example 96, (2S)-2-[(5-chloro-4-{5-[8-chloro-6-(trifluoromethyl)imidazo[1,2-a]pyridin-2-yl]-1,2,4-oxadiazol-3-yl}-2-fluorophenyl)oxy]propan-1-ol], the EC50 (hS1P1R (hEdg1)) was at most 100 nM, the EC50 (S1P1 [1]; read-out: Assay 3b EC50) was 100 to 500 nM and the EC50 (S1P1 [2]) was at most 100 nM. It also gave an EC50 (S1P1 [3]) of at most 100 nM.

CS(=O)(=O)Nc1ccc(-c2nnc(-c3cn4cc(C(F)(F)F)cc(Cl)c4n3)s2)c(Cl)c1 [Example 239, N-(3-chloro-4-{5-[8-chloro-6-(trifluoromethyl)imidazo[1,2-a]pyridin-2-yl]-1,3,4-thiadiazol-2-yl}phenyl)methanesulfonamide] was tested, and the EC50 (S1P1 [4]) was at most 100 nM, the EC50 (S1P1 [1]; read-out: Assay 3b EC50) was 100 to 500 nM and the EC50 (S1P1 [2]) was at most 100 nM. It also gave an EC50 (S1P1 [3]) of at most 100 nM.

For O=C(O)CCc1ccc(-c2noc(-c3cn4cc(C(F)(F)F)cc(Cl)c4n3)n2)cc1Cl [Entry 7], the EC50 (hS1P1R (hEdg1)) was 1000 to 5000 nM, the EC50 (S1P1 [1]; [5]) was 100 to 500 nM and the EC50 (S1P1 [2]) was at most 100 nM. It also gave an EC50 (S1P1 [3]) of at most 100 nM.

NCCOc1ccc(-c2noc(-c3cn4cc(C(F)(F)F)cc(Cl)c4n3)n2)c(Cl)c1 [Example 257, 2-[(3-chloro-4-{5-[8-chloro-6-(trifluoromethyl)imidazo[1,2-a]pyridin-2-yl]-1,2,4-oxadiazol-3-yl}phenyl)oxy]ethanamine] showed an EC50 (S1P1 [4]) of 100 to 500 nM, an EC50 (S1P1 [1]; read-out: Assay 3b EC50) of 100 to 500 nM and an EC50 (S1P1 [2]) of at most 100 nM. The EC50 (S1P1 [3]) was at most 100 nM.

Cc1cc(C2CC2C(=O)O)c(F)cc1-c1noc(-c2cn3cc(C(F)(F)F)cc(Cl)c3n2)n1 (centres unmarked) [Example 79, 2-(4-{5-[8-chloro-6-(trifluoromethyl)imidazo[1,2-a]pyridin-2-yl]-1,2,4-oxadiazol-3-yl}-2-fluoro-5-methylphenyl)cyclopropanecarboxylic acid] showed an EC50 (hS1P1R (hEdg1)) of 500 to 1000 nM, an EC50 (S1P1 [1]; read-out: Assay 3b EC50) of 100 to 500 nM and an EC50 (S1P1 [2]) of at most 100 nM. For the same compound, the EC50 (S1P1 [3]) was at most 100 nM.

NCCOc1ccc(-c2nnc(-c3cn4cc(C(F)(F)F)cc(Cl)c4n3)s2)c(Cl)c1 [Example 244, 2-[(3-chloro-4-{5-[8-chloro-6-(trifluoromethyl)imidazo[1,2-a]pyridin-2-yl]-1,3,4-thiadiazol-2-yl}phenyl)oxy]ethanamine] gave an EC50 (hS1P1R (hEdg1)) of 100 to 500 nM, an EC50 (S1P1 [1]; read-out: Assay 3b EC50) of 500 to 1000 nM and an EC50 (S1P1 [2]) of at most 100 nM. The EC50 (S1P1 [3]) was 100 to 500 nM.

Work on CC(CO)Oc1ccc(-c2noc(-c3cn4cc(C(F)(F)F)cc(Cl)c4n3)n2)c(Cl)c1 (centres unmarked) [Example 256, 2-[(3-chloro-4-{5-[8-chloro-6-(trifluoromethyl)imidazo[1,2-a]pyridin-2-yl]-1,2,4-oxadiazol-3-yl}phenyl)oxy]propan-1-ol] yielded an EC50 (hS1P1R (hEdg1)) of 500 to 1000 nM, an EC50 (S1P1 [1]; read-out: Assay 3b EC50) of 100 to 500 nM and an EC50 (S1P1 [2]) of at most 100 nM. It also gave an EC50 (S1P1 [3]) of at most 100 nM.

O=C(O)CCc1ccc(-c2nnc(-c3cn4cc(C(F)(F)F)cc(Cl)c4n3)s2)c(Cl)c1 [Example 283, 3-(3-chloro-4-{5-[8-chloro-6-(trifluoromethyl)imidazo[1,2-a]pyridin-2-yl]-1,3,4-thiadiazol-2-yl}phenyl)propanoic acid] gave an EC50 (hS1P1R (hEdg1)) of 100 to 500 nM, an EC50 (S1P1 [1]; read-out: Assay 3b EC50) of 100 to 500 nM and an EC50 (S1P1 [2]) of at most 100 nM. It also gave an EC50 (S1P1 [3]) of at most 100 nM.

Work on CS(=O)(=O)Nc1ccc(-c2noc(-c3cn4cc(C(F)(F)F)cc(Cl)c4n3)n2)c(Cl)c1 [Example 94, N-(3-chloro-4-{5-[8-chloro-6-(trifluoromethyl)imidazo[1,2-a]pyridin-2-yl]-1,2,4-oxadiazol-3-yl}phenyl)methanesulfonamide] yielded an EC50 (S1P1 [1]; read-out: Assay 3b EC50) of 500 to 1000 nM, an EC50 (S1P1 [2]) of at most 100 nM and an EC50 (S1P1 [3]) of 100 to 500 nM.

With O=C(O)C1CN(Cc2ccc(-c3noc(-c4cn5cc(C(F)(F)F)cc(Cl)c5n4)n3)c(Cl)c2)C1 [Example 124, 1-[(3-chloro-4-{5-[8-chloro-6-(trifluoromethyl)imidazo[1,2-a]pyridin-2-yl]-1,2,4-oxadiazol-3-yl}phenyl)methyl]azetidine-3-carboxylic acid] the EC50 (S1P1 [1]; [5]) was 1000 to 5000 nM, the EC50 (S1P1 [2]) was 100 to 500 nM and the EC50 (S1P1 [3]) was 100 to 500 nM.

Compound CC(CO)Oc1cc(Cl)c(-c2noc(-c3cn4cc(C(F)(F)F)cc(Cl)c4n3)n2)cc1F (centres unmarked) [Example 259, 2-[(5-chloro-4-{5-[8-chloro-6-(trifluoromethyl)imidazo[1,2-a]pyridin-2-yl]-1,2,4-oxadiazol-3-yl}-2-fluorophenyl)oxy]propan-1-ol] has an EC50 (hS1P1R (hEdg1)) of at most 100 nM, an EC50 (S1P1 [1]; read-out: Assay 3b EC50) of 100 to 500 nM and an EC50 (S1P1 [2]) of at most 100 nM. For the same compound, the EC50 (S1P1 [3]) was at most 100 nM.

O=C(O)CCc1cc(Cl)c(-c2nc(-c3cn4cc(C(F)(F)F)cc(Br)c4n3)no2)cc1F [Example 238, 3-(4-{3-[8-bromo-6-(trifluoromethyl)imidazo[1,2-a]pyridin-2-yl]-1,2,4-oxadiazol-5-yl}-5-chloro-2-fluorophenyl)propanoic acid] gave an EC50 (S1P1 [1]; read-out: Assay 3b EC50) of 100 to 500 nM, an EC50 (S1P1 [2]) of at most 100 nM and an EC50 (S1P1 [3]) of at most 100 nM.
